Test results taken from the NIST ThermoML archive (doi:10.1021/je1008747).
± gives the expanded uncertainty stated by the source.

Details: Liquid

C[C@H](O)C(=O)[O-].C[N+](C)(C)CCO
Details	mass density [kg/m3]
293.15 K, 101.33 kPa	1143.2 ± 7.7
298.15 K, 101.33 kPa	1139.9 ± 7.7
303.15 K, 101.33 kPa	1136.8 ± 7.6
308.15 K, 101.33 kPa	1133.6 ± 7.6
312.4 K, 100 kPa	1130 ± 7
312.4 K, 10000 kPa	1133 ± 7
312.4 K, 20000 kPa	1137 ± 7
312.4 K, 30000 kPa	1140 ± 7
312.4 K, 40000 kPa	1143 ± 8
312.4 K, 50000 kPa	1146 ± 8
312.4 K, 60000 kPa	1150 ± 8
312.4 K, 70000 kPa	1152 ± 8
312.4 K, 80000 kPa	1155 ± 8
312.4 K, 90000 kPa	1157 ± 8
312.4 K, 100000 kPa	1160 ± 9
312.4 K, 110000 kPa	1163 ± 9
312.4 K, 120000 kPa	1166 ± 9
312.4 K, 130000 kPa	1168 ± 9
312.4 K, 140000 kPa	1171 ± 9
312.4 K, 150000 kPa	1173 ± 10
312.4 K, 160000 kPa	1176 ± 10
312.4 K, 170000 kPa	1178 ± 10
312.4 K, 180000 kPa	1181 ± 10
312.4 K, 190000 kPa	1183 ± 10
312.4 K, 200000 kPa	1185 ± 11
313.15 K, 101.33 kPa	1130.5 ± 7.5
318.15 K, 101.33 kPa	1127.3 ± 7.5
323.15 K, 101.33 kPa	1124.2 ± 7.4
328.15 K, 101.33 kPa	1121.1 ± 7.4
332.3 K, 10000 kPa	1121 ± 7
332.3 K, 20000 kPa	1124 ± 7
332.3 K, 30000 kPa	1128 ± 7
332.3 K, 40000 kPa	1131 ± 7
332.3 K, 50000 kPa	1134 ± 8
332.3 K, 60000 kPa	1137 ± 8
332.3 K, 70000 kPa	1140 ± 8
332.3 K, 80000 kPa	1143 ± 8
332.3 K, 90000 kPa	1146 ± 8
332.3 K, 100000 kPa	1149 ± 8
332.3 K, 110000 kPa	1152 ± 9
332.3 K, 120000 kPa	1154 ± 9
332.3 K, 130000 kPa	1157 ± 9
332.3 K, 140000 kPa	1160 ± 9
332.3 K, 150000 kPa	1162 ± 9
332.3 K, 160000 kPa	1165 ± 10
332.3 K, 170000 kPa	1168 ± 10
332.3 K, 180000 kPa	1170 ± 10
332.3 K, 190000 kPa	1172 ± 10
332.3 K, 200000 kPa	1175 ± 10
333.15 K, 101.33 kPa	1118.1 ± 7.3
338.15 K, 101.33 kPa	1115.1 ± 7.3
343.15 K, 101.33 kPa	1112.2 ± 7.2
348.15 K, 101.33 kPa	1109.3 ± 7.2
352.2 K, 10000 kPa	1109 ± 7
352.2 K, 20000 kPa	1113 ± 7
352.2 K, 30000 kPa	1116 ± 7
352.2 K, 40000 kPa	1120 ± 7
352.2 K, 50000 kPa	1123 ± 7
352.2 K, 60000 kPa	1126 ± 8
352.2 K, 70000 kPa	1129 ± 8
352.2 K, 80000 kPa	1132 ± 8
352.2 K, 90000 kPa	1135 ± 8
352.2 K, 100000 kPa	1138 ± 8
352.2 K, 110000 kPa	1141 ± 8
352.2 K, 120000 kPa	1144 ± 9
352.2 K, 130000 kPa	1146 ± 9
352.2 K, 140000 kPa	1149 ± 9
352.2 K, 150000 kPa	1152 ± 9
352.2 K, 160000 kPa	1154 ± 9
352.2 K, 170000 kPa	1157 ± 9
352.2 K, 180000 kPa	1159 ± 10
352.2 K, 190000 kPa	1162 ± 10
352.2 K, 200000 kPa	1165 ± 10
353.15 K, 101.33 kPa	1106.4 ± 7.2
372.3 K, 10000 kPa	1098 ± 7
372.3 K, 20000 kPa	1101 ± 7
372.3 K, 30000 kPa	1105 ± 7
372.3 K, 40000 kPa	1109 ± 7
372.3 K, 50000 kPa	1112 ± 7
372.3 K, 60000 kPa	1115 ± 7
372.3 K, 70000 kPa	1118 ± 8
372.3 K, 80000 kPa	1122 ± 8
372.3 K, 90000 kPa	1125 ± 8
372.3 K, 100000 kPa	1128 ± 8
372.3 K, 110000 kPa	1130 ± 8
372.3 K, 120000 kPa	1133 ± 8
372.3 K, 130000 kPa	1136 ± 8
372.3 K, 140000 kPa	1139 ± 9
372.3 K, 150000 kPa	1142 ± 9
372.3 K, 160000 kPa	1144 ± 9
372.3 K, 170000 kPa	1147 ± 9
372.3 K, 180000 kPa	1150 ± 9
372.3 K, 190000 kPa	1152 ± 10
372.3 K, 200000 kPa	1155 ± 10
392.4 K, 10000 kPa	1086 ± 7
392.4 K, 20000 kPa	1090 ± 7
392.4 K, 30000 kPa	1094 ± 7
392.4 K, 40000 kPa	1098 ± 7
392.4 K, 50000 kPa	1101 ± 7
392.4 K, 60000 kPa	1105 ± 7
392.4 K, 70000 kPa	1108 ± 7
392.4 K, 80000 kPa	1111 ± 7
392.4 K, 90000 kPa	1114 ± 8
392.4 K, 100000 kPa	1117 ± 8
392.4 K, 110000 kPa	1121 ± 8
392.4 K, 120000 kPa	1124 ± 8
392.4 K, 130000 kPa	1126 ± 8
392.4 K, 140000 kPa	1129 ± 8
392.4 K, 150000 kPa	1132 ± 9
392.4 K, 160000 kPa	1135 ± 9
392.4 K, 170000 kPa	1138 ± 9
392.4 K, 180000 kPa	1140 ± 9
392.4 K, 190000 kPa	1143 ± 9
392.4 K, 200000 kPa	1146 ± 10

CCCCn1cc[n+](C)c1.[Cl-] [1-butyl-3-methylimidazolium chloride]
Details	mass density [kg/m3]
348.15 K, 101.33 kPa	1055.7 ± 2.4
352.1 K, 100 kPa	1054 ± 2
352.1 K, 10000 kPa	1058 ± 2
352.1 K, 20000 kPa	1062 ± 2
352.1 K, 30000 kPa	1067 ± 2
352.1 K, 40000 kPa	1071 ± 2
352.1 K, 50000 kPa	1074 ± 3
352.1 K, 60000 kPa	1078 ± 3
352.1 K, 70000 kPa	1082 ± 3
352.1 K, 80000 kPa	1085 ± 3
352.1 K, 90000 kPa	1089 ± 3
352.1 K, 100000 kPa	1093 ± 3
352.1 K, 110000 kPa	1096 ± 3
352.1 K, 120000 kPa	1099 ± 3
352.1 K, 130000 kPa	1102 ± 3
352.1 K, 140000 kPa	1106 ± 3
352.1 K, 150000 kPa	1109 ± 3
352.1 K, 160000 kPa	1112 ± 3
352.1 K, 170000 kPa	1115 ± 3
352.1 K, 180000 kPa	1118 ± 3
352.1 K, 190000 kPa	1121 ± 4
352.1 K, 200000 kPa	1124 ± 4
353.15 K, 101.33 kPa	1053 ± 2.4
358.15 K, 101.33 kPa	1050.4 ± 2.4
363.15 K, 101.33 kPa	1047.7 ± 2.4
368.15 K, 101.33 kPa	1045.1 ± 2.4
372.4 K, 10000 kPa	1046 ± 2
372.4 K, 20000 kPa	1050 ± 2
372.4 K, 30000 kPa	1055 ± 2
372.4 K, 40000 kPa	1059 ± 2
372.4 K, 50000 kPa	1063 ± 2
372.4 K, 60000 kPa	1067 ± 3
372.4 K, 70000 kPa	1071 ± 3
372.4 K, 80000 kPa	1074 ± 3
372.4 K, 90000 kPa	1078 ± 3
372.4 K, 100000 kPa	1081 ± 3
372.4 K, 110000 kPa	1085 ± 3
372.4 K, 120000 kPa	1088 ± 3
372.4 K, 130000 kPa	1092 ± 3
372.4 K, 140000 kPa	1095 ± 3
372.4 K, 150000 kPa	1099 ± 3
372.4 K, 160000 kPa	1102 ± 3
372.4 K, 170000 kPa	1105 ± 3
372.4 K, 180000 kPa	1108 ± 3
372.4 K, 190000 kPa	1111 ± 3
372.4 K, 200000 kPa	1115 ± 4
373.15 K, 101.33 kPa	1042.6 ± 2.4
392.3 K, 10000 kPa	1034 ± 2
392.3 K, 20000 kPa	1038 ± 2
392.3 K, 30000 kPa	1043 ± 2
392.3 K, 40000 kPa	1047 ± 2
392.3 K, 50000 kPa	1052 ± 2
392.3 K, 60000 kPa	1056 ± 2
392.3 K, 70000 kPa	1059 ± 3
392.3 K, 80000 kPa	1063 ± 3
392.3 K, 90000 kPa	1067 ± 3
392.3 K, 100000 kPa	1071 ± 3
392.3 K, 110000 kPa	1075 ± 3
392.3 K, 120000 kPa	1078 ± 3
392.3 K, 130000 kPa	1081 ± 3
392.3 K, 140000 kPa	1085 ± 3
392.3 K, 150000 kPa	1088 ± 3
392.3 K, 160000 kPa	1092 ± 3
392.3 K, 170000 kPa	1095 ± 3
392.3 K, 180000 kPa	1099 ± 3
392.3 K, 190000 kPa	1102 ± 3
392.3 K, 200000 kPa	1105 ± 3
412.3 K, 10000 kPa	1022 ± 2
412.3 K, 20000 kPa	1027 ± 2
412.3 K, 30000 kPa	1032 ± 2
412.3 K, 40000 kPa	1036 ± 2
412.3 K, 50000 kPa	1041 ± 2
412.3 K, 60000 kPa	1045 ± 2
412.3 K, 70000 kPa	1049 ± 2
412.3 K, 80000 kPa	1053 ± 2
412.3 K, 90000 kPa	1057 ± 3
412.3 K, 100000 kPa	1061 ± 3
412.3 K, 110000 kPa	1064 ± 3
412.3 K, 120000 kPa	1068 ± 3
412.3 K, 130000 kPa	1072 ± 3
412.3 K, 140000 kPa	1076 ± 3
412.3 K, 150000 kPa	1079 ± 3
412.3 K, 160000 kPa	1082 ± 3
412.3 K, 170000 kPa	1086 ± 3
412.3 K, 180000 kPa	1089 ± 3
412.3 K, 190000 kPa	1092 ± 3
412.3 K, 200000 kPa	1096 ± 3
432.2 K, 10000 kPa	1011 ± 2
432.2 K, 20000 kPa	1016 ± 2
432.2 K, 30000 kPa	1021 ± 2
432.2 K, 40000 kPa	1026 ± 2
432.2 K, 50000 kPa	1030 ± 2
432.2 K, 60000 kPa	1035 ± 2
432.2 K, 70000 kPa	1039 ± 2
432.2 K, 80000 kPa	1043 ± 2
432.2 K, 90000 kPa	1047 ± 2
432.2 K, 100000 kPa	1051 ± 3
432.2 K, 110000 kPa	1055 ± 3
432.2 K, 120000 kPa	1059 ± 3
432.2 K, 130000 kPa	1062 ± 3
432.2 K, 140000 kPa	1066 ± 3
432.2 K, 150000 kPa	1069 ± 3
432.2 K, 160000 kPa	1073 ± 3
432.2 K, 170000 kPa	1076 ± 3
432.2 K, 180000 kPa	1080 ± 3
432.2 K, 190000 kPa	1083 ± 3
432.2 K, 200000 kPa	1087 ± 3
452 K, 10000 kPa	1000 ± 2
452 K, 20000 kPa	1005 ± 2
452 K, 30000 kPa	1010 ± 2
452 K, 40000 kPa	1015 ± 2
452 K, 50000 kPa	1020 ± 2
452 K, 60000 kPa	1024 ± 2
452 K, 70000 kPa	1028 ± 2
452 K, 80000 kPa	1032 ± 2
452 K, 90000 kPa	1037 ± 2
452 K, 100000 kPa	1041 ± 2
452 K, 110000 kPa	1045 ± 3
452 K, 120000 kPa	1048 ± 3
452 K, 130000 kPa	1052 ± 3
452 K, 140000 kPa	1056 ± 3
452 K, 150000 kPa	1060 ± 3
452 K, 160000 kPa	1063 ± 3
452 K, 170000 kPa	1067 ± 3
452 K, 180000 kPa	1070 ± 3
452 K, 190000 kPa	1074 ± 3
452 K, 200000 kPa	1077 ± 3
